In PubChem BioAssay (NCI) one finds GI50 and TGI data, which are given here for nine compounds.

Test systems include DU-145 prostate; HCT-15 colon; A549 NSCLC; SF-268 CNS; NCI-H23 lung; SK-OV-3 ovarian; BT-549 breast; OVCAR-8 ovarian; SF-539 CNS; M14 melanoma.
Common to all, as to test: NCI tumour cell line growth inhibition, 48 h

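Cultured in 96-well plates, cells were exposed to test compound for 48 hours across five concentrations. GI50 = concentration required for 50% inhibition of growth. The concentration for full growth arrest is given as TGI.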

For the compound `COc1cc(N2C(=O)[C@H](Cl)C2c2ccc(SC)cc2)cc(OC)c1OC` (some centres not stated), the GI50 with DU-145 prostate was 0.168 µM; in the test with HCT-15 colon, 0.047 µM; with A549 NSCLC it was 0.463 µM; in the test on SF-268 CNS it was 0.0841 µM; in the test on NCI-H23 lung, 0.121 µM; in the test with SK-OV-3 ovarian, 0.588 µM. Further, the GI50 is 0.0989 µM in the test on BT-549 breast, 0.226 µM in the test on OVCAR-8 ovarian and 0.0307 µM in the test on SF-539 CNS. Besides, the TGI in the test on DU-145 prostate, in the test on HCT-15 colon, in the test on A549 NSCLC, with SF-268 CNS, in the test with NCI-H23 lung and with SK-OV-3 ovarian was above 100 µM each time. Moreover, the TGI in the test with BT-549 breast was 0.748 µM; in the test with OVCAR-8 ovarian it was above 100 µM; in the test on SF-539 CNS, 0.163 µM.
For the compound `COc1cc(O)ccc1C(=S)SC`, the TGI with DU-145 prostate, in the test with HCT-15 colon, with A549 NSCLC, in the test on M14 melanoma, with SF-268 CNS and with NCI-H23 lung was above 100 µM in each case. Further, the TGI with SK-OV-3 ovarian, in the test with BT-549 breast, with OVCAR-8 ovarian and with SF-539 CNS was above 100 µM in each case.
Regarding `Oc1ccc(Cl)cc1C=Nc1cnc2ccccc2c1`, the TGI with DU-145 prostate, in the test with HCT-15 colon, in the test with A549 NSCLC, in the test with M14 melanoma, in the test on SF-268 CNS and in the test on NCI-H23 lung was above 100 µM each time. Besides, the TGI is above 100 µM in the test with SK-OV-3 ovarian, above 100 µM with BT-549 breast, above 100 µM with OVCAR-8 ovarian and 45.8 µM in the test on SF-539 CNS.
Consider `O=C1NC(=NCCc2ccc(Cl)cc2)S/C1=C\c1ccc2ncccc2c1`, for which the GI50 in the test on DU-145 prostate was 24.4 µM; with HCT-15 colon, 12.9 µM; in the test with A549 NSCLC, 15 µM; with M14 melanoma it was 25 µM; in the test with SF-268 CNS, 11.7 µM; with NCI-H23 lung, 23.3 µM. Also, the GI50 in the test with SK-OV-3 ovarian was 17.5 µM; in the test on BT-549 breast, 13.9 µM; in the test with OVCAR-8 ovarian, 12.9 µM; in the test with SF-539 CNS, 15.9 µM. Moreover, the TGI in the test on DU-145 prostate, in the test on HCT-15 colon, with A549 NSCLC, in the test with M14 melanoma, in the test with SF-268 CNS and with NCI-H23 lung was above 25 µM in each case. Moreover, the TGI with SK-OV-3 ovarian, in the test with BT-549 breast, with OVCAR-8 ovarian and with SF-539 CNS was above 25 µM in each case.
On to `COC1=CC(=O)O/C1=C(\OC)C1OC1c1ccccc1` (configuration not stated), for which the TGI in the test on DU-145 prostate, in the test on HCT-15 colon, in the test with A549 NSCLC, in the test on M14 melanoma, with SF-268 CNS and with NCI-H23 lung was above 100 µM each time. The TGI with SK-OV-3 ovarian, in the test with BT-549 breast, in the test on OVCAR-8 ovarian and in the test with SF-539 CNS was above 100 µM each time.
In the case of `Cc1cccc(N2C(=O)/C(=C/C(Cl)=C/c3ccc([N+](=O)[O-])cc3)SC2=S)c1C`, the GI50 is 3.98 µM in the test on DU-145 prostate; 0.874 µM in the test on HCT-15 colon; 1.66 µM with A549 NSCLC; 2.39 µM with M14 melanoma; 1.84 µM with NCI-H23 lung; 4.93 µM in the test with SK-OV-3 ovarian. Also, the GI50 in the test on BT-549 breast was 1.61 µM; with OVCAR-8 ovarian it was 1.08 µM; with SF-539 CNS, 2.37 µM. Also, the TGI in the test on DU-145 prostate is above 100 µM; with HCT-15 colon, 4.77 µM; in the test on A549 NSCLC, above 100 µM; in the test with M14 melanoma it was 6.86 µM; with NCI-H23 lung, 4.38 µM; in the test on SK-OV-3 ovarian, above 100 µM. Further, the TGI with BT-549 breast is 4.08 µM; in the test with OVCAR-8 ovarian it was above 100 µM; with SF-539 CNS, 6.76 µM.
Take `O=C1c2ccccc2-c2nc3ccncc3n21`: the TGI in the test with DU-145 prostate, in the test with HCT-15 colon, in the test on A549 NSCLC, in the test with SF-268 CNS, in the test on NCI-H23 lung and in the test on SK-OV-3 ovarian was above 100 µM throughout. Besides, the TGI with BT-549 breast, with OVCAR-8 ovarian and in the test on SF-539 CNS was above 100 µM each time.
`O=c1c(-c2ccc3c(c2)OCO3)coc2c3c(ccc12)OCO3`: the TGI with DU-145 prostate is above 100 µM; in the test with HCT-15 colon, above 100 µM; in the test with A549 NSCLC, above 100 µM; in the test with M14 melanoma it was above 100 µM; in the test with SF-268 CNS, 43.3 µM; in the test on NCI-H23 lung, 40 µM. Further, the TGI in the test on SK-OV-3 ovarian was 40.9 µM; in the test on BT-549 breast, 32.6 µM; in the test on SF-539 CNS, 58.7 µM.
On to `O=C(Nc1sc2c(c1C(=O)O)CCCC2)c1ccco1`, for which the GI50 is above 50 µM in the test with DU-145 prostate; 30.6 µM with HCT-15 colon; 19.1 µM in the test on A549 NSCLC; above 50 µM with M14 melanoma; 25.7 µM in the test on SF-268 CNS; above 50 µM in the test with SK-OV-3 ovarian. The figures for the GI50 in the test on BT-549 breast, in the test with OVCAR-8 ovarian and in the test on SF-539 CNS were above 50 µM, above 50 µM and 47.5 µM, respectively. In addition, the TGI with DU-145 prostate, in the test on HCT-15 colon, in the test on A549 NSCLC, with M14 melanoma, with SF-268 CNS and in the test on SK-OV-3 ovarian was above 50 µM throughout. For the same compound, the TGI with BT-549 breast, with OVCAR-8 ovarian and in the test with SF-539 CNS was above 50 µM throughout.
